We go through 29 compounds from patent US20240417405A1, “Substituted Spiro Derivatives” (Janssen Pharmaceutica NV, priority 2021, published 2024).

As a reminder, the pIC50 is −log10 of the IC50, conventionally taken in molar units.

pIC50: −log10 of the molar value. Bounds are passed on as bounds.

The target in test [1] is T1, menin/MLL (terbium chelate-labeled menin, FITC-MBM1 peptide) (Homo sapiens, UniProt O00255, T541A).
T1 construct: Menin (a.a 1-610-6xhis tag)
T1 sequence (O00255 with tags, fused parts or gaps T541A): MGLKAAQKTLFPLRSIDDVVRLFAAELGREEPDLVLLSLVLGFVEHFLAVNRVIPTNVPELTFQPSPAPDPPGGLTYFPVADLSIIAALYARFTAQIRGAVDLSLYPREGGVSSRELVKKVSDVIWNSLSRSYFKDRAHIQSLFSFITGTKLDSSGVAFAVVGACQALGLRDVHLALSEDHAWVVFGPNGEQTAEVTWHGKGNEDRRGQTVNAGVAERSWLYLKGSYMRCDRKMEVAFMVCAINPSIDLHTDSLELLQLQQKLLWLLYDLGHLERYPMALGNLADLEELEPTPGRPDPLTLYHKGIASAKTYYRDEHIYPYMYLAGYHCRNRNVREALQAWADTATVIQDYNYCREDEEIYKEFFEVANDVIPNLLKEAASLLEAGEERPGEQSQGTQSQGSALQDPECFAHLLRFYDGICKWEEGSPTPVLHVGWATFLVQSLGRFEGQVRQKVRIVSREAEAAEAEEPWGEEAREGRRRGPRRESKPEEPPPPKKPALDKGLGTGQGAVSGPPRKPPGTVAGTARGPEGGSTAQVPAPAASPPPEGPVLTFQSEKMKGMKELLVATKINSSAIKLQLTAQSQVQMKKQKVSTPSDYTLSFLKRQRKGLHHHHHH
Put plainly: Menin/MLL homogenous time-resolved fluorescence (HTRF) assay. The following applies: 30 min incubation. Type of test: binding. The method in brief:
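Terbium-labeled menin (aa 1-610, His-tagged; 200 pM) preincubated 30 min with compound, then 75 nM FITC-MBM1 peptide added for 15 min at ambient temperature in pH 7.5 Tris buffer, 0.5% DMSO. HTRF ratio 520/490 nm converted to % inhibition. IC50 came from an 11-point four-fold titration from 10 μM, floor 0.1 nM.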
Background: In TR-FRET formats the signal depends on donor and acceptor labels being close together.

The test system of the next test is MOLM14 cells. The test is described as follows: Proliferation assay, spheroid-like growth, MOLM14 (MLL-AF9 rearranged). Type of test: cell-based, human. The following applies: Homo sapiens, MOLM-14, 192 h, 8 days, confluence as measure of spheroid size, read-out: spheroid assay_OneTime MOLM14 IC50. The method in brief:
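Cells seeded in ultra-low attachment round-bottom wells (200 MOLM14 or 300 KO-52 per well) with compound at several concentrations, DMSO 0.3%, grown 8 days at 37° C, 5% CO2. Spheroid size taken as confluence from day-8 live-cell images; IC50 from variable-slope fit, DMSO as 0% and high-dose reference compound as 100% effect.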

`CC(C)[C@H]([C@H]1C[C@@H](Nc2ccn3ccnc3c2)C1)N1CC2(CCN(c3ncnnc3Oc3ccc(F)cc3-c3cncnc3C3CC3)C2)C1` (single isomer, unassigned) [Compound 406]: the pIC50 is 9.52 in test [1] and 7.38 with MOLM14 cells.
On the same counts, the results for `CC(C)[C@H]([C@H]1C[C@@H](Nc2ccnc(NS(C)(=O)=O)n2)C1)N1CC2(CCN(c3ncnnc3Oc3ccc(F)cc3-c3cncnc3C3CC3)C2)C1` (single isomer, unassigned) [Compound 408] are 9.85 and 6.66.
As for `CC(=O)Nc1cncc(N[C@H]2C[C@@H](C(C(C)C)N3CC4(CCN(c5ncnnc5Oc5ccc(F)cc5-c5cncnc5C5CC5)C4)C3)C2)c1` (single isomer, unassigned) [Compound 410], the negative logarithm of the IC50 (pIC50) in test [1] is 9.96; in the test on MOLM14 cells, 7.72.
`CC(C)C(C1CC(Nc2ncc3cn[nH]c3n2)C1)N1CC2(CCN(c3ncnnc3Oc3ccc(F)cc3-c3cncnc3C3CC3)C2)C1` (single isomer, unassigned) [Compound 411]: the pIC50 is 9.82 in test [1] and 8.00 in the test on MOLM14 cells.
Consider `CC(C)[C@H]([C@H]1C[C@@H](Nc2ccn3ccnc3n2)C1)N1CC2(CCN(c3ncnnc3Oc3ccc(F)cc3-c3cncnc3C3CC3)C2)C1` (single isomer, unassigned) [Compound 412], for which the pIC50 was 9.80 in test [1] and over 8.74 in the test on MOLM14 cells.
On the same counts, the results for `CC(C)[C@H]([C@H]1C[C@@H](Nc2ncnc3[nH]ncc23)C1)N1CC2(CCN(c3ncnnc3Oc3ccc(F)cc3-c3cncnc3C3CC3)C2)C1` (single isomer, unassigned) [Compound 413] are 10.10 and 7.59.
On the same counts, the results for `CC(=O)Nc1cc(N[C@H]2C[C@@H](C(C(C)C)N3CC4(CCN(c5ncnnc5Oc5ccc(F)cc5-c5cncnc5C5CC5)C4)C3)C2)cnn1` (single isomer, unassigned) [Compound 414] are 10.00 and 7.68.
For `CNC(=O)c1cnc(N[C@H]2C[C@@H]([C@@H](C(C)C)N3CC4(CCN(c5ncnnc5Oc5ccc(F)cc5-c5cnc(C)nc5C5CC5)C4)C3)C2)o1` (single isomer, unassigned) [Compound 416] the same measures were 9.77 and 8.05.
`CNC(=O)c1cnc(N[C@H]2C[C@@H]([C@@H](C(C)C)N3CC4(CCN(c5ncnnc5Oc5ccc(F)cc5-c5cnc(C)nc5C5CC5)C4)C3)C2)s1` (single isomer, unassigned) [Compound 417]: the negative-log IC50 (pIC50) in test [1] is 10.30; in the test on MOLM14 cells it was 8.74.
Take `CC(=O)Nc1cc(N[C@H]2C[C@@H]([C@@H](C(C)C)N3CC4(CCN(c5ncnnc5Oc5ccc(F)cc5-c5cncnc5C5CC5)C4)C3)C2)ncn1` (single isomer, unassigned) [Compound 418]: the pIC50 is 10.15 in test [1] and 8.05 with MOLM14 cells.
For `COc1cc(N[C@H]2C[C@@H]([C@@H](C(C)C)N3CC4(CCN(c5ncnnc5Oc5ccc(F)cc5-c5cncnc5C5CC5)C4)C3)C2)cnn1` (single isomer, unassigned) [Compound 419] the same measures were 9.85 and 8.30.
On the same counts, the results for `CC(C)[C@H]([C@H]1C[C@@H](Nc2ccnc3[nH]c(=O)ccc23)C1)N1CC2(CCN(c3ncnnc3Oc3ccc(F)cc3-c3cncnc3C3CC3)C2)C1` (single isomer, unassigned) [Compound 420] are about 9.41 and 6.54.
For `CNC(=O)Nc1cc(N[C@H]2C[C@@H](C(C(C)C)N3CC4(CCN(c5ncnnc5Oc5ccc(F)cc5-c5cncnc5C5CC5)C4)C3)C2)ccn1` (single isomer, unassigned) [Compound 421], the values for the pIC50 (in test [1]; with MOLM14 cells) were 9.89 and over 8.74, respectively.
On to `CC(C)[C@H]([C@H]1C[C@@H](Nc2ncnc3[nH]ncc23)C1)N1CC2(CCN(c3ncnnc3Oc3ccc(F)cc3-c3cncnc3C3CC3)C2)C1` (single isomer, unassigned) [Compound 422], for which the pIC50 in test [1] is about 9.57; in the test with MOLM14 cells, 7.06.
For `Cc1cc(-c2cnnc(N[C@H]3C[C@@H]([C@@H](C(C)C)N4CC5(CCN(c6ncnnc6Oc6ccc(F)cc6-c6cncnc6C6CC6)C5)C4)C3)c2)[nH]n1` (single isomer, unassigned) [Compound 423], the pIC50 was 9.74 in test [1] and 8.05 with MOLM14 cells.
Turning to `CC(C)[C@H]([C@H]1C[C@@H](Nc2cnnc(-c3ccn[nH]3)c2)C1)N1CC2(CCN(c3ncnnc3Oc3ccc(F)cc3-c3cncnc3C3CC3)C2)C1` (single isomer, unassigned) [Compound 424], the pIC50 in test [1] was 9.77; in the test with MOLM14 cells, 8.40.
For `CC(C)C([C@H]1C[C@@H](Nc2cccc(CN(C)C)n2)C1)N1CC2(CCN(c3ncnnc3Oc3ccc(F)cc3-c3cncnc3C3CC3)C2)C1` (single isomer, unassigned) [Compound 425] the same measures were 10.52 and 8.22.
Consider `Cc1cn2ccc(N[C@H]3C[C@@H](C(C(C)C)N4CC5(CCN(c6ncnnc6Oc6ccc(F)cc6-c6cncnc6C6CC6)C5)C4)C3)cc2n1` (single isomer, unassigned) [Compound 426], for which the pIC50 in test [1] is 10.05; in the test on MOLM14 cells, over 8.74.
As to `COC(=O)Nc1cc(N[C@H]2C[C@@H]([C@@H](C(C)C)N3CC4(CCN(c5ncnnc5Oc5ccc(F)cc5-c5cncnc5C5CC5)C4)C3)C2)ccn1` (single isomer, unassigned) [Compound 427], the pIC50 in test [1] was about 9.96; with MOLM14 cells it was over 8.74.
On the same counts, the results for `CC(C)C([C@H]1C[C@@H](Nc2cccc(CN3CCOCC3)n2)C1)N1CC2(CCN(c3ncnnc3Oc3ccc(F)cc3-c3cncnc3C3CC3)C2)C1` (single isomer, unassigned) [Compound 428] are 10.05 and 7.80.
Regarding `CC(=O)Nc1nccc(N[C@H]2C[C@@H]([C@@H](C(C)C)N3CC4(CCN(c5ncnnc5Oc5ccc(F)cc5-c5cncnc5C5CC5)C4)C3)C2)c1F` (single isomer, unassigned) [Compound 429], the pIC50 in test [1] was 9.77; in the test on MOLM14 cells, 8.48.
With `Cc1nnc(-c2cc(N[C@H]3C[C@@H]([C@@H](C(C)C)N4CC5(CCN(c6ncnnc6Oc6ccc(F)cc6-c6cncnc6C6CC6)C5)C4)C3)ccn2)[nH]1` (single isomer, unassigned) [Compound 430], the pIC50 was 9.96 in test [1] and 8.47 in the test on MOLM14 cells.
Take `CC(C)[C@H]([C@H]1C[C@@H](Nc2cnc3nn[nH]c3c2)C1)N1CC2(CCN(c3ncnnc3Oc3ccc(F)cc3-c3cncnc3C3CC3)C2)C1` (single isomer, unassigned) [Compound 431]: the pIC50 in test [1] is 9.27; with MOLM14 cells, 7.10.
On the same counts, the results for `CNC(=O)c1cc(N[C@H]2C[C@@H]([C@@H](C(C)C)N3CC4(CCN(c5ncnnc5Oc5ccc(F)cc5-c5cncnc5C5CC5)C4)C3)C2)cnn1` (single isomer, unassigned) [Compound 432] are 9.77 and 7.66.
On the same counts, the results for `CC(C)[C@H]([C@H]1C[C@@H](Nc2cc3nccn3cn2)C1)N1CC2(CCN(c3ncnnc3Oc3ccc(F)cc3-c3cncnc3C3CC3)C2)C1` (single isomer, unassigned) [Compound 433] are 9.82 and 8.70.
As for `CNC(=O)c1coc(N[C@H]2C[C@@H](C(C(C)C)N3CC4(CCN(c5ncnnc5Oc5ccc(F)cc5-c5cncnc5C5CC5)C4)C3)C2)n1` (single isomer, unassigned) [Compound 438], the negative-log IC50 (pIC50) in test [1] was 9.80; in the test on MOLM14 cells, 8.40.
`CNC(=O)c1nnc(N[C@H]2C[C@@H]([C@@H](C(C)C)N3CC4(CCN(c5ncnnc5Oc5ccc(F)cc5-c5cncnc5C5CC5)C4)C3)C2)o1` (single isomer, unassigned) [Compound 439]: the pIC50 in test [1] is 9.41; in the test on MOLM14 cells it was 7.60.
With `C[C@@H]([C@H]1C[C@@H](N)C1)N1CC2(CCN(c3ncnnc3Oc3ccc(F)cc3-c3cncnc3C3CC3)C2)C1` (single isomer, unassigned) [Compound 441], the pIC50 in test [1] is 9.04; in the test with MOLM14 cells, 6.17.
`CNC(=O)c1nnc(N[C@H]2C[C@@H]([C@@H](C(C)C)N3CC4(CCN(c5ncnnc5Oc5ccc(F)cc5-c5cncnc5C5CC5)C4)C3)C2)s1` (single isomer, unassigned) [Compound 442]: the negative logarithm of the IC50 (pIC50) in test [1] is 9.68; in the test with MOLM14 cells it was 8.40.
